Data as given in ChEMBL document CHEMBL1153778, “Contact-active microbicidal gold surfaces using immobilization of quaternary ammonium thiol derivatives” (2009).

What was measured:
Assay type in all cases: functional
[1] = tested on: Staphylococcus aureus; test: Antimicrobial activity against Staphylococcus aureus ATCC 6538 on gold coated surface assessed as log reduction of colony forming units after 4 hrs
[2] = tested on: Staphylococcus aureus; test: Antimicrobial activity against Staphylococcus aureus ATCC 6538 on gold coated surface assessed as log reduction of colony forming units after 24 hrs
[3] = tested on: Staphylococcus aureus; test: Antimicrobial activity against Staphylococcus aureus ATCC 6538 on gold coated surface assessed as bactericidal efficiency after 4 hrs

Q: For `C[N+](C)(CCCNC(=O)CCCCCCCCCCS)Cc1ccccc1.[Cl-]`, which Activity [1] is on record?
A: The Activity was 0.

Q: And the Activity [2]?
A: The Activity was 0.

Q: And the Activity [3]?
A: The Activity was 0.

Q: Which results are given for `CCCCCCCCCC[N+](C)(C)CCCNC(=O)CCCCCCCCCCS.[Cl-]`?
A: Activity [1]: 0.39; Activity [2]: 0; Activity [3]: 67

Q: With `CCCCCCCCCCCCCC[N+](C)(C)CCCCCCCCCCCS.[Cl-]` as the compound, how does the Activity [1] read?
A: Its Activity is 0.

Q: And the Activity [2]?
A: Its Activity is 0.

Q: And the Activity [3]?
A: Its Activity is 0.

Q: With `C[N+](C)(C)CCCCCCCCCCCS.[Cl-]` as the compound, how does the Activity [1] read?
A: Its Activity is 0.14.

Q: And the Activity [2]?
A: Its Activity is 0.

Q: What about the Activity [3] of the same compound?
A: The Activity was 30.

Q: `C[N+](C)(C)CCCNC(=O)CCCCCCCCCCS.[Cl-]` was tested. Which Activity [1] did it give?
A: Its Activity is 0.14.

Q: And the Activity [2]?
A: The Activity was 0.

Q: And the Activity [3]?
A: The Activity was 30.

Q: How did the Activity [1] turn out when `CCCCCCCCCCCC[N+](C)(C)CCCNC(=O)CCCCCCCCCCS.[Cl-]` was run?
A: The Activity was 0.31.

Q: What about the Activity [2] of the same compound?
A: The Activity was 0.

Q: What about the Activity [3] of the same compound?
A: The Activity was 51.

Q: `CCCCCCCCCC[N+](C)(C)CCCCCCCCCCCS.[Cl-]` was tested. Which Activity [1] did it give?
A: The Activity was 0.31.

Q: And the Activity [2]?
A: The Activity was 0.

Q: And the Activity [3]?
A: Its Activity is 51.

Q: What does the source list for `CCCCCCCCCCCC[N+](C)(C)CCCCCCCCCCCS.[Cl-]`?
A: Activity [1]: 0.31; Activity [2]: 0; Activity [3]: 51

Q: `CCCCCCCCCCCCCC[N+](C)(C)CCCNC(=O)CCCCCCCCCCS.[Cl-]` was tested. Which Activity [1] did it give?
A: Its Activity is 0.14.

Q: What about the Activity [2] of the same compound?
A: The Activity was 0.

Q: And the Activity [3]?
A: Its Activity is 30.

Q: How did the Activity [1] turn out when `C[N+](C)(CCCCCCCCCCCS)Cc1ccccc1.[Cl-]` was run?
A: Its Activity is 0.14.

Q: What about the Activity [2] of the same compound?
A: The Activity was 0.

Q: And the Activity [3]?
A: The Activity was 30.
